According to ChEMBL document CHEMBL1143652, “Joys of molecules. 2. Endeavors in chemical biology and medicinal chemistry” (J Med Chem, 2005):
Values after ≈ are worked out from the molar mass of the structure shown.

Key:
[1] = system: MCF7; test: Inhibitory concentration against MCF-7 human breast carcinoma cell line; Inactive upto 1 uM; assay type: functional, cell-based
[2] = system: PC-3; test: Inhibitory concentration against PC-3 human prostate carcinoma cell line; Inactive upto 1 uM; assay type: functional, cell-based
[3] = system: 1A9/ptx-10; test: Inhibitory concentration against 1A9/PTX10 cell line; Inactive upto 1 uM; assay type: functional, cell-based, Homo sapiens
[4] = system: A2780; test: Inhibitory concentration against A2780/AD10 cell line; Inactive upto 1 uM; assay type: functional, cell-based, Homo sapiens
[5] = system: A549; test: Inhibitory concentration against A549 human lung carcinoma cell line; Inactive upto 1 uM; assay type: functional, cell-based
[6] = system: 1A9; test: Inhibitory concentration against 1A9 human ovarian carcinoma cell line; Inactive upto 1 uM; assay type: functional, cell-based
[7] = target: Polyunsaturated fatty acid 5-lipoxygenase (Homo sapiens) (UniProt P09917); test: Inhibitory concentration against 5-lipoxygenase
[8] = Inhibitory concentration against LN229 cell proliferation; assay type: functional, cell-based; conditions: Homo sapiens, LN-229
[9] = target: Protein kinase C (PKC); test: Inhibitory activity against protein kinase C; assay type: protein assay
[10] = target: cAMP-dependent protein kinase (PKA) (Homo sapiens, UniProt P22694+P17612+P22612); test: Inhibitory constant against the protein kinase A; assay type: protein assay
[11] = system: 1A9; test: Cytotoxicity against 1A9 ovarian cancer cells; assay type: functional, cell-based; conditions: Homo sapiens
[12] = system: KB 3-1; test: Cytotoxicity against KB-31 human epidermoid cancer cells; assay type: functional, cell-based
[13] = system: KB 3-1; test: Cytotoxicity against KB3-1 human epidermoid cancer cells; assay type: functional, cell-based
[14] = target: T1, Mycothiol S-conjugate amidase (Mycobacterium tuberculosis, UniProt P9WJN1); test: Inhibition of Mycobacterium tuberculosis detoxification enzyme mycothiol-S-conjugate amidase (MCA)
T1 sequence (P9WJN1 whole entry): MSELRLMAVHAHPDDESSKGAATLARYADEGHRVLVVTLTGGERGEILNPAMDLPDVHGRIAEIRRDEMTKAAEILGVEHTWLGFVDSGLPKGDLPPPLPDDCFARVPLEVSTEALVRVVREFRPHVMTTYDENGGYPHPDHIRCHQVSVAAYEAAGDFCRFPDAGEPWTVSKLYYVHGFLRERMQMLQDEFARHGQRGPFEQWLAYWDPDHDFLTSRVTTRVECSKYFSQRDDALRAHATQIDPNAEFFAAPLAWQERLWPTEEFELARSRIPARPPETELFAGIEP

[15] = system: Bacteria; test: Minimum inhibitory concentration against bacterial strains; assay type: functional
[16] = system: Enterococcus faecium; test: Minimum inhibitory concentration against vancomycin resistant Enterococcus faecium; assay type: functional
[17] = system: MOLT-4; test: Inhibitory concentration against MOLT-4 human T-cells; assay type: functional, cell-based
[18] = system: MOLT-4; test: Inhibitory concentration against MOLT-4 human T-cells; 10e-11; assay type: functional, cell-based
[19] = system: 1A9; test: Inhibitory concentration against human 1A9 ovarian carcinoma cells; assay type: functional, cell-based
[20] = organism: Felis catus; test: Inhibition of LTC4 and LTD4 production in cat lung at 5 mM; assay type: functional
[21] = system: OVCAR-3; test: Cytotoxicity by measuring inhibitory concentration against ovcar-3 tumor cell line; Inactive; assay type: functional, cell-based, Homo sapiens
[22] = system: MOLT-4; test: Inhibitory concentration against MOLT-4 human T-cells; 10e-12; assay type: functional, cell-based

Sequence of Polyunsaturated fatty acid 5-lipoxygenase (Homo sapiens) (P09917 whole entry): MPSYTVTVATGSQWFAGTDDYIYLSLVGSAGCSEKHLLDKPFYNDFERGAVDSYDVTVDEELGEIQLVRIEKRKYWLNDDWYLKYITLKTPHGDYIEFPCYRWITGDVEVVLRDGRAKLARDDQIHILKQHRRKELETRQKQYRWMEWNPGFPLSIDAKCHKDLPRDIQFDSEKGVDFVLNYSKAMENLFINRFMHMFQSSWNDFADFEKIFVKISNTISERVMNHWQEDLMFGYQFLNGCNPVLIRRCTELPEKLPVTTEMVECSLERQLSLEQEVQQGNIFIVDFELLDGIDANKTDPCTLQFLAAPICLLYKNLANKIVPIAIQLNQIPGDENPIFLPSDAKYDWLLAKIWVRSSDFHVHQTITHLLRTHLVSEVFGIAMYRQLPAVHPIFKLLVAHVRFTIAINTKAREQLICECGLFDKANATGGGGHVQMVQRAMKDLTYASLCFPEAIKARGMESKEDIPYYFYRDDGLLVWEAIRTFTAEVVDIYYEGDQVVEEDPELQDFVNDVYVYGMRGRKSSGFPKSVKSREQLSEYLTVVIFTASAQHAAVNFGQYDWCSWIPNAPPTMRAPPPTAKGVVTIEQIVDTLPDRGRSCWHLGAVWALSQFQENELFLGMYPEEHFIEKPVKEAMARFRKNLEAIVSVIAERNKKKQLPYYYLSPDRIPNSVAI

## CC(C)[C@@H]1NC(=O)[C@@H](NC(=O)OCc2ccccc2)Cc2ccc3c(c2)[C@]2(C4=C(C=O)N=C1O4)c1cccc(Br)c1N[C@@H]2O3
[1]
  IC50: Inactive
[2]
  IC50: Inactive
[3]
  IC50: Inactive
[4]
  IC50: Inactive
[5]
  IC50: Inactive
[6]
  IC50: Inactive

## CCCCC/C=C\C\C=C/C=C/C=C/[C@@H]1C[C@H]1CCCC(=O)O
[7]
  ID50: 44 µM

## COc1c(C(C)n2cnc3ncccc32)ccc2c1C=CC(C)(C)O2 (configuration not stated)
[8]
  IC50: 26 µM

## O=C(N[C@@H]1CNCCC[C@H]1OC(=O)c1ccc(C(=O)c2c(O)cccc2C(=O)O)cc1)c1ccc(O)cc1
[9]
  Ki: 0.08 µM
[10]
  Ki: 0.0034 µM

## CO[C@@]12C=C3C(=O)O[C@]4(O[C@]35[C@@H](C1)C(C)(C)OC5(CC=C(C)C)C2=O)C(=O)C1=C(C=CC(C)(C)O1)C(=O)C4CC=C(C)C (some centres not stated) [1-O-METHYLLATERIFLORONE]
[11]
  IC50: 25 µM

## CC(C)=CCc1c2c(c(O)c3c1O[C@]14C(=C[C@@H]5C[C@H]1C(C)(C)OC4(CC=C(C)C)C5=O)C3=O)C=CC(C)(C)O2
[12]
  IC50: 8.41 µM
[13]
  IC50: 8.41 µM

## Nc1ccc(SSCCNC(=O)/C(Cc2ccc(O)c(Cl)c2)=N/O)cc1
[14]
  IC50: 35 µM
[15]
  MIC: 1.23 ug m/L

## COC1=C(CC=C(C)C)[C@]2(OC(=O)C3=C[C@]4(OC)C[C@H]5C(C)(C)OC(CC=C(C)C)(C4=O)[C@]35O2)C(=O)C2=C1C=CC(C)(C)O2
[11]
  IC50: 5 µM

## CC(C)C[C@H]1NC(=O)[C@H](Cc2ccccc2)NC(=O)CNC(=O)[C@H](C)NC(=O)[C@H](Cc2ccc(O)cc2)NC(=O)/C=C\c2ccccc2OCOC1=O
[16]
  MIC: 0.25 µg/mL (≈ 0.343 µM)

## COC(=O)N/C(C)=C1/C(=C/COC(=O)c2ccc([N+](=O)[O-])cc2)[C@@](O)(CC=O)C#C/C=C\C#C[C@@H]1O
[17]
  IC50: 0.044 nM
[18]
  IC50: 0.044 nM

## CC(C)=CCc1c2c(c(O)c3c1O[C@]14C(=C[C@@H]5C[C@H]1C(C)(C)OC4(CC=C(C)C)C5=O)C3=O)C=CC(C)(CCC(C)C)O2 (some centres not stated)
[12]
  IC50: 6.01 µM
[13]
  IC50: 6.01 µM

## COC[C@@H](C[C@H]1O[C@@](O)([C@H](O)[C@@H]2C[C@H](OC)[C@@H](O)CC/C=C(C)/C=C/[C@@H](O[C@@H]3O[C@@H](C)[C@H](OC)[C@@H](O)[C@@H]3O)[C@H](C)/C=C(C)/C=C(C)/C=C(\C)C(=O)O2)[C@H](C)[C@@H](O)[C@H]1C)OC1C[C@](C)(O)[C@@H](O[C@H]2C[C@@H](OC)[C@H](O)[C@@H](C)O2)[C@H](C)O1 (some centres not stated) [APOPTOLIDIN]
[19]
  IC50: 240 µM

## COCn1c(Cl)c2c3c(cccc31)-c1cccc3c1OC[C@@]3(c1ccccc1)c1oc(C)nc1-c1nc(Cl)c-2o1
[19]
  IC50: 3.6 µM

## CCCCC/C=C\C/C=C\C/C=C\C1(/C=C\CCCC(=O)O)CC1
[20]
  Inhibition: 8%

## CCCCC/C=C\C/C=C\C1(/C=C\C2(/C=C\CCCC(=O)O)CC2)CC1
[20]
  Inhibition: 5%

## CC(=O)O[C@@H]1C2=C(C)[C@H](OC(=O)[C@H](O)[C@@H](NC(=O)c3ccccc3)c3ccccc3)C[C@@](O)([C@@H](OC(=O)c3ccccc3)c3ccccc3[C@H]1OC(C)=O)C2(C)C
[21]
  IC50: Not Active

## COC(=O)N/C(C)=C1/C(=C/CSSSC)[C@@](O)(CC=O)C#C/C=C\C#C[C@@H]1O
[17]
  IC50: 0.0012 nM
[22]
  IC50: 1.2 pM

## CC(C)=CCCC1(C)C=Cc2c(O)c3c(c(CC=C(C)C)c2O1)O[C@]12C(=CC4C[C@H]1C(C)(C)OC2(CC=C(C)C)C4=O)C3=O (some centres not stated) [GAMBOGIN]
[12]
  IC50: 9.35 µM
[13]
  IC50: 9.35 µM

## O=C(NCCSSc1ccc(F)cc1)/C(Cc1cc(F)cc(F)c1)=N/O
[14]
  IC50: 2720 µM
[15]
  MIC: 0.46 ug m/L
